The results in this text go back to patent publication US20260062426A1, “CYCLIN DEPENDENT KINASE DEGRADERS AND METHODS OF USE THEREOF” (Differentiated Therapeutics Inc, priority 2023, published 2026).

The DC50 is the concentration giving 50% degradation. A lower DC50 goes with a more potent degrader. The Dmax is the largest share of the target that was removed. A lower Dmax goes with shallow degradation.

Assay type in all cases: cell-based
For assay [1], the target named is T1, CDK2 (Homo sapiens, UniProt P24941).
T1 construct: host or cells: HEK293
Nature of the assay: CDK2 HIBIT PQ (protein quantification), degradation. To be noted: for CDK2 HIBIT PQ Max (%): Max = Maximum; for DC50: PQ = Protein Quantification. In short, it runs like this: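 HEK293 cells carrying HiBiT-tagged CDK2 were grown in DMEM with 10% FBS and seeded in 384-well plates at 1.6×10^5 cells/well in 50 uL, then incubated overnight at 37° C and 5% CO2. After 6 hours of compound treatment, 20 μL of HiBiT reagent (Nano-Glo HiBiT lytic buffer, lytic substrate, LgBiT protein) was added and plates were shaken for 20 minutes at room temperature before an EnVision reading. High control was 0.1% DMSO and low control was medium only. Maximal degradation and DC50 were derived from these readings.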

Assay [2] deals with T2, CDK9 (Homo sapiens, UniProt P50750).
T2 construct: host or cells: HEK293
T2 sequence (P50750 whole entry): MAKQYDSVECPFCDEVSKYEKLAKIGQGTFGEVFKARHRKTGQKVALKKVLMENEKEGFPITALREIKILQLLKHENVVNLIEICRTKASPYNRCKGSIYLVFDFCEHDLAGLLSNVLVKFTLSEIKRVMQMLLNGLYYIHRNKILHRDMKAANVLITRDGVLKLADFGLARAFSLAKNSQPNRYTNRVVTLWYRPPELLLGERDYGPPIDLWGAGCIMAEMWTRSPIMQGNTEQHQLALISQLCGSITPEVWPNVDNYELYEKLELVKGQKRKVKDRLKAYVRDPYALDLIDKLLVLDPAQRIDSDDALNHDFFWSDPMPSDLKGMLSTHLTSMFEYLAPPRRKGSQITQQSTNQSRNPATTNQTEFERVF
Nature of the assay: CDK9 HIBIT PQ (protein quantification), degradation. To be noted: for Dmax: Max = Maximum; for DC50: PQ = Protein Quantification. In short, it runs like this:
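In 384-well plates, HEK293 cells with HiBiT-tagged CDK9, grown in DMEM with 10% FBS, were seeded at 1.6×10^5 cells/well in 50 uL and kept overnight at 37° C and 5% CO2. After compound treatment, a HiBiT assay quantified CDK9 protein against a high control of 0.1% DMSO-treated cells and a low control of culture medium only. Maximal degradation, Dmax and DC50 were derived from the resulting signal.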

In assay [3] the target is T3, CCNE1 (Homo sapiens, UniProt P24864+P24941).
T3 construct: host or cells: HEK293
Nature of the assay: CCNE1 HIBIT PQ (protein quantification), degradation. The conditions noted are these: for CCNE1 HIBIT PQ Max (%): Max = Maximum; for DC50: PQ = Protein Quantification. In a few lines: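 Compound was applied for 6 hours to HEK293 cells expressing HiBiT-tagged CCNE1, which had been seeded overnight in 384-well plates at 1.6×10⁵ cells/well. CCNE1 protein was then read by HiBiT assay against a high control of 0.1% DMSO-treated cells and a low control of medium only. These readings gave DC50 and maximal degradation.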

Turning to `CC(C)Oc1c(-c2cn[nH]c2)ncn2nc(Nc3ccc(S(=O)(=O)N4CC5C4CCN5CC4CCN(c5cccc6c5n(C)c(=O)n6C5CCC(=O)NC5=O)CC4)cc3F)nc12` (stereo not drawn) [Compound 74], in assay [1], the “CDK2 HIBIT PQ Max (%)” value turned out to be 91% and it took 0.7 nM to reach half-maximal degradation (DC50). In assay [2], this compound showed a Dmax of 88% and a DC50 of 7.04 nM. In addition, in assay [3], the “CCNE1 HIBIT PQ Max (%)” value is 71% and the DC50 amounted to 3.57 nM.

Consider `CC(C)Oc1c(-c2cn[nH]c2)ncn2nc(Nc3ccc(S(=O)(=O)N4CCC5(CCN(CC6CN(c7cccc8c7n(C)c(=O)n8C7CCC(=O)NC7=O)C6)C5)C4)cc3F)nc12` (stereo not drawn) [Compound 75], for which, in assay [1], the “CDK2 HIBIT PQ Max (%)” value is 85% and the half-maximal degradation concentration (DC50) turned out to be 4.7 nM. In assay [2], this compound came in with a maximal degradation (Dmax) of 55% and a half-maximal degradation concentration (DC50) of 92.5 nM. In addition, the “CCNE1 HIBIT PQ Max (%)” value in assay [3] stood at 28%.

As for `CC(C)Oc1c(-c2cn[nH]c2)ncn2nc(Nc3ccc(S(=O)(=O)c4cccc(CC5CC(c6ccc7c(c6)CN(C6CCC(=O)NC6=O)C7=O)C5)c4)cc3F)nc12` (stereo not drawn) [Compound 77, 3-(5-(3-(3-((3-fluoro-4-((8-isopropoxy-7-(1H-pyrazol-4-yl)-[1,2,4]triazolo[1,5-c]pyrimidin-2-yl)amino)phenyl)sulfonyl)benzyl)cyclobutyl)-1-oxoisoindolin-2-yl)piperidine-2,6-dione], in assay [1], the “CDK2 HIBIT PQ Max (%)” value amounted to 95% and the DC50 was 12.4 nM. Besides, in assay [2], the maximal degradation (Dmax) worked out at 37%. In assay [3], the “CCNE1 HIBIT PQ Max (%)” value is given as 82% and the DC50 turned out to be 34.4 nM.

Take `CC(C)Oc1c(-c2cn[nH]c2)ncn2nc(Nc3ccc(S(=O)(=O)c4cccc(CN5CC(c6ccc7c(N8CCC(=O)NC8=O)nn(C)c7c6)C5)c4)cc3F)nc12` [Compound 78]: in assay [1], the “CDK2 HIBIT PQ Max (%)” value stood at 85% and half-maximal degradation (DC50) was put at 2 nM. For the same compound, in assay [2], the Dmax was determined as 12%. Also, the “CCNE1 HIBIT PQ Max (%)” value in assay [3] was 36%.

As to `CC(C)Oc1c(-c2cn[nH]c2)ncn2nc(Nc3ccc(S(=O)(=O)c4cccc(C(C)N5CCN(c6ccc7c(N8CCC(=O)NC8=O)nn(C)c7c6)C6CC65)c4)cc3F)nc12` (stereo not drawn) [Compound 83], in assay [1], the “CDK2 HIBIT PQ Max (%)” value was 89% and the DC50 came out at 7.6 nM. The same compound returned a Dmax in assay [2] of 23%. In assay [3], the “CCNE1 HIBIT PQ Max (%)” value is given as 28%.

As for `CC(C)Oc1c(-c2cn[nH]c2)ncn2nc(Nc3ccc(S(=O)(=O)N4CCCC(CN5CCN(c6ccc7c(N8CCC(=O)NC8=O)nn(C)c7c6)C6CC65)C4)cc3F)nc12` (stereo not drawn) [Compound 88], in assay [1], the “CDK2 HIBIT PQ Max (%)” value came out at 61% and the DC50 came out at 6.5 nM. Also, the Dmax in assay [2] came out at 18%. The “CCNE1 HIBIT PQ Max (%)” value in assay [3] worked out at 25%.

As to `CC(C)Oc1c(-c2cn[nH]c2)ncn2nc(Nc3ccc(S(=O)(=O)c4cccc(C[C@H]5C[C@H](c6ccc7c(N8CCC(=O)NC8=O)nn(C)c7c6)C5)c4)cc3F)nc12` [Compound 89, rel-1-(6-((1s,3r)-3-(3-((3-fluoro-4-((8-isopropoxy-7-(1H-pyrazol-4-yl)-[1,2,4]triazolo[1,5-c]pyrimidin-2-yl)amino)phenyl)sulfonyl)benzyl)cyclobutyl)-1-methyl-1H-indazol-3-yl)dihydropyrimidine-2,4(1H,3H)-dione], in assay [1], the “CDK2 HIBIT PQ Max (%)” value is on record as 70% and the DC50 amounted to 43.4 nM. For the same compound, in assay [2], the Dmax came to 17%. The “CCNE1 HIBIT PQ Max (%)” value in assay [3] was 38%.

Consider `CC(C)Oc1c(-c2cn[nH]c2)ncn2nc(Nc3ccc(S(=O)(=O)c4cccc(C[C@H]5C[C@@H](c6ccc7c(N8CCC(=O)NC8=O)nn(C)c7c6)C5)c4)cc3F)nc12` [Compound 90, rel-1-(6-((1r,3s)-3-(3-((3-fluoro-4-((8-isopropoxy-7-(1H-pyrazol-4-yl)-[1,2,4]triazolo[1,5-c]pyrimidin-2-yl)amino)phenyl)sulfonyl)benzyl)cyclobutyl)-1-methyl-1H-indazol-3-yl)dihydropyrimidine-2,4(1H,3H)-dione], for which, in assay [1], the “CDK2 HIBIT PQ Max (%)” value turned out to be 91% and half-maximal degradation (DC50) was put at 14.3 nM. Also, in assay [2], the Dmax worked out at 14%. Besides, in assay [3], the “CCNE1 HIBIT PQ Max (%)” value worked out at 48%.

As to `CC(C)Oc1c(-c2cn[nH]c2)ncn2nc(Nc3ccc(S(=O)(=O)N4CCCC(CN5CCN(c6ccc7c(N8CCC(=O)NC8=O)nn(C)c7c6)C(C)C5)C4)cc3F)nc12` (stereo not drawn) [Compound 91], in assay [1], the “CDK2 HIBIT PQ Max (%)” value worked out at 84% and the DC50 stood at 3.2 nM. In addition, in assay [2], the Dmax turned out to be 67% and the DC50 was 61.5 nM. Also, in assay [3], the “CCNE1 HIBIT PQ Max (%)” value was 71% and it took 12.5 nM to reach half-maximal degradation (DC50).

On to `CC(C)Oc1c(-c2cn[nH]c2)ncn2nc(Nc3ccc(S(=O)(=O)N4CCCC(CN5CCC(c6ccc7c(N8CCC(=O)NC8=O)nn(C)c7c6)C(C)C5)C4)cc3F)nc12` (stereo not drawn) [Compound 92], for which, in assay [1], the “CDK2 HIBIT PQ Max (%)” value was determined as 88% and it took 1.7 nM to reach half-maximal degradation (DC50). Moreover, in assay [2], the Dmax came to 77% and the half-maximal degradation concentration (DC50) came out at 21.7 nM. In assay [3], the “CCNE1 HIBIT PQ Max (%)” value was 82% and half-maximal degradation (DC50) was put at 4.11 nM.

Take `CC(C)Oc1c(-c2cn[nH]c2)ncn2nc(Nc3ccc(S(=O)(=O)N4CCCC(CN5CCC(c6ccc7c(N8CCC(=O)NC8=O)nn(C)c7c6)CC5(C)C)C4)cc3F)nc12` (stereo not drawn) [Compound 93, 1-(6-(1-((1-((3-fluoro-4-((8-isopropoxy-7-(1H-pyrazol-4-yl)-[1,2,4]triazolo[1,5-c]pyrimidin-2-yl)amino)phenyl)sulfonyl)piperidin-3-yl)methyl)-2,2-dimethylpiperidin-4-yl)-1-methyl-1H-indazol-3-yl)dihydropyrimidine-2,4(1H,3H)-dione]: in assay [1], the “CDK2 HIBIT PQ Max (%)” value stood at 77% and the DC50 was 0.7 nM. In assay [2], this compound yielded a maximal degradation (Dmax) of 56% and a DC50 of 5.87 nM. In addition, in assay [3], the “CCNE1 HIBIT PQ Max (%)” value stood at 56% and the DC50 came out at 1.22 nM.
